Test results from ChEMBL document CHEMBL1135216, “New 2-(1-adamantylcarbonyl)pyridine and 1-acetyladamantane thiosemicarbazones-thiocarbonohydrazones: cell growth inhibitory, antiviral and antimicrobial activity evaluation” (Bioorg Med Chem Lett, 2002).
Values after ≈ are worked out from the molar mass of the structure shown.

Key:
K562 [1] = assay: Tested for the inhibitory concentration against cell growth of human leukemic cell line K562; assay type: functional
HEL [2] = assay: Tested for cytotoxic activity in human embryonic lung fibroblast (HEL); assay type: functional
HeLa [3] = assay: Tested for cytotoxic activity in human epithelial cell line (HeLa); assay type: functional
HuT78 [4] = assay: Tested for the inhibitory concentration against cell growth of HuT78 T lymphoma using MTT assay; assay type: functional; details: Homo sapiens
CCRF-CEM [5] = assay: Tested for the inhibitory concentration against cell growth of human leukemic cell line CCRF-CEM; assay type: functional
HEL [6] = assay: Tested for antiviral activity against thymidine kinase wild type Varicella zoster virus in human embryonic lung fibroblast; assay type: functional
Escherichia coli [7] = assay: Tested for the antimicrobial activity against Escherichia coli ATCC 25922; assay type: functional
MOLT-4 [8] = assay: Tested for the concentration required to reduce the viability of leukemia cells by 50% against cell growth of T cell leukemia cell line MOLT-4 using MTT assay; assay type: functional; details: Homo sapiens, read-out: LC50 (the source's name)
RPMI-8226 [9] = assay: Tested for the inhibitory concentration against cell growth of […] multiple myeloma using MTT assay; assay type: functional; details: Homo sapiens
MOLT-4 [10] = assay: Tested for the inhibitory concentration against cell growth of Tcell leukemic cell line MOLT-4 using MTT assay; assay type: functional; details: Homo sapiens
Staphylococcus aureus [11] = assay: Tested for the antimicrobial activity against Staphylococcus aureus ATCC 6538; assay type: functional
Vero [12] = assay: Tested for antiviral activity against Punta toro virus in African green monkey kidney cell (Vero); assay type: functional; details: Chlorocebus sabaeus
Vero [13] = assay: Tested for antiviral activity against coxsackie B-4 virus in African green monkey kidney cell (Vero); assay type: functional; details: Chlorocebus sabaeus
HL-60 [14] = assay: Tested for the concentration required to reduce the viability of leukemia cells by 50% against cell growth of HL60 acute myeloid leukemia using MTT assay; assay type: functional; details: Homo sapiens, read-out: LC50 (the source's name)
MOLT-4 [15] = assay: Tested for the inhibitory concentration against cell growth of human leukemic cell line MOLT-4; assay type: functional
E6SM [16] = assay: Tested for cytotoxic activity in human embryonic skin muscle fibroblast (E6SM); assay type: functional; details: Muscle tissue
[17] = tested on: Staphylococcus epidermidis; assay: Tested for the antimicrobial activity against Staphylococcus epidermidis ATCC 12228; assay type: functional
CCRF-CEM [18] = assay: Tested for the inhibitory concentration against cell growth of Tcell leukemic cell line CCRF-CEM using MTT assay; assay type: functional; details: Homo sapiens
HEL [19] = assay: Tested for antiviral activity against human cytomegalovirus (AD-169) in human embryonic lung fibroblasts; assay type: functional
Staphylococcus hominis [20] = assay: Tested for the antimicrobial activity against Staphylococcus hominis ATCC 27844; assay type: functional
HL-60 [21] = assay: Tested for the inhibitory concentration against cell growth of HL60 acute myeloid leukemia using MTT assay; assay type: functional; details: Homo sapiens
HeLa [22] = assay: The compound was tested for antiviral activity against VSV-virus in human epithelial cells; assay type: functional
K562 [23] = assay: Tested for the inhibitory concentration against cell growth of K562 chronic myeloid leukemia using MTT assay; assay type: functional; details: Homo sapiens
MT4 [24] = assay: Tested for cytotoxic concentration required to reduce the viability of MT-4 cells by 50%; assay type: functional, cell-based; details: Homo sapiens, read-out: EC50 (the source's name)
E6SM [25] = assay: Tested for antiviral activity against VSV-virus in human embryonic skin muscle fibroblasts; assay type: functional; details: Muscle tissue
MT4 [26] = assay: (§1) Tested for effective concentration required to protect MT-4 cells against the cytopathicity of HIV-2(ROD); assay type: functional, cell-based; details: Homo sapiens
Vero [27] = assay: Tested for antiviral activity against Sindbis virus in African green monkey kidney cell (Vero); assay type: functional; details: Chlorocebus sabaeus
CCRF-CEM [28] = assay: Tested for the concentration required to reduce the viability of leukemia cells by 50% against cell growth of T cell leukemia cell line CCRF-CEM using MTT assay; assay type: functional; details: Homo sapiens, read-out: LC50 (the source's name)
Vero [29] = assay: Tested for antiviral activity against parainfluenza virus in african green monkey kidney cell (Vero); assay type: functional; details: Chlorocebus sabaeus
HeLa [30] = assay: Tested for antiviral activity against coxsackie-B4 virus in human epithelial cell line; assay type: functional
E6SM [31] = assay: Tested for antiviral activity against herpes simplex virus type 1(KOS) in E6SM cell line(human embryonic skin-muscle fibroblasts); assay type: functional
RPMI-8226 [32] = assay: Tested for the inhibitory concentration against cell growth of human leukemic cell line RPMI8226; assay type: functional
Vero [33] = assay: Tested for antiviral activity against Reo-1 virus in African green monkey kidney cell (Vero); assay type: functional; details: Chlorocebus sabaeus
E6SM [34] = assay: Tested for antiviral activity against vaccinia virus in human embryonic skin muscle fibroblast; assay type: functional; details: Muscle tissue
HuT78 [35] = assay: Tested for the concentration required to reduce the viability of leukemia cells by 50% against cell growth of HuT78 T lymphoma using MTT assay; assay type: functional; details: Homo sapiens, read-out: LC50 (the source's name)
RPMI-8226 [36] = assay: Tested for the concentration required to reduce the viability of leukemia cells by 50% against cell growth of RPMI8226 multiple myeloma using MTT assay; assay type: functional; details: Homo sapiens, read-out: LC50 (the source's name)
E6SM [37] = assay: Antiviral activity against thymidine kinase-deficient (TK-HSV-1)virus in E6SM cell line(human embryonic skin-muscle fibroblasts); assay type: functional
HL-60 [38] = assay: Tested for the inhibitory concentration against cell growth of human leukemic cell line HL60; assay type: functional
MT4 [39] = assay: Tested for effective concentration required to protect MT-4 cells against the cytopathicity of HIV-1(IIIB); assay type: functional; details: Homo sapiens, read-out: LC50 (the source's name)
E6SM [40] = assay: Antiviral activity against thymidine kinase-deficient (TK-HSV-2G) virus in E6SM cell line(human embryonic skin-muscle fibroblasts); assay type: functional
HuT78 [41] = assay: Tested for the inhibitory concentration against cell growth of human leukemic cell line HuT78; assay type: functional
Klebsiella pneumoniae [42] = assay: Tested for the antimicrobial activity against Klebsiella pneumoniae ATCC 13883; assay type: functional
K562 [43] = assay: Tested for the concentration required to reduce the viability of leukemia cells by 50% against cell growth of K562 chronic myeloid leukemia using MTT assay; assay type: functional; details: Homo sapiens, read-out: LC50 (the source's name)
Vero [44] = assay: Tested for cytotoxic activity in African green monkey kidney cells (Vero); assay type: functional; details: Chlorocebus sabaeus
HEL [45] = assay: Tested for antiviral activity against thymidine kinase deficient Varicella zoster virus in human embryonic lung fibroblasts; assay type: functional
Klebsiella pneumoniae [46] = assay: Tested for the antimicrobial activity as minimum inhibitory concentration against Klebsiella pneumoniae ATCC 13883; assay type: functional
Staphylococcus hominis [47] = assay: Tested for the antimicrobial activity as minimum inhibitory concentration against Staphylococcus hominis ATCC 27844; assay type: functional
Staphylococcus aureus [48] = assay: Tested for the antimicrobial activity as minimum inhibitory concentration against Staphylococcus aureus ATCC 6538; assay type: functional
Escherichia coli [49] = assay: Tested for the antimicrobial activity as minimum inhibitory concentration against Escherichia coli ATCC 25922; assay type: functional
[50] = tested on: Staphylococcus epidermidis; assay: Tested for the antimicrobial activity as minimum inhibitory concentration against Staphylococcus epidermidis ATCC 12228; assay type: functional
E6SM [51] = assay: The compound was tested for antiviral activity against thymidine kinase-deficient (TK-HSV-1)virus in E6SM cell line(human embryonic skin-muscle fibroblasts); assay type: functional
MT4 [52] = assay: as §1; assay type: functional; details: Homo sapiens, read-out: LC50 (the source's name)
E6SM [53] = assay: Tested for antiviral activity against thymidine kinase-deficient (TK-HSV-2G) virus in E6SM cell line(human embryonic skin-muscle fibroblasts); assay type: functional
MT4 [54] = assay: The compound was tested for effective concentration required to protect MT-4 cells against the cytopathicity of HIV-1(IIIB); assay type: functional, cell-based; details: Homo sapiens
MT4 [55] = assay: The compound was tested for effective concentration required to protect MT-4 cells against the cytopathicity of HIV-2(ROD); assay type: functional, cell-based; details: Homo sapiens
MT4 [56] = assay: The compound was tested for cytotoxic concentration required to reduce the viability of MT-4 cells; assay type: functional; details: Homo sapiens

## N/N=C(\S)N/N=C(/c1ccccn1)C12CC3CC(CC(C3)C1)C2
K562 [1]
  GI50: 41.7 µM
HEL [2]
  MCC: > 20 µg/mL
HeLa [3]
  MCC: 400 µg/mL
HuT78 [4]
  TGI: 100 µM
CCRF-CEM [5]
  GI50: 100 µM
HEL [6]
  MIC: > 20 µg/mL
Escherichia coli [7]
  MIC: > 3040 µg/mL
MOLT-4 [8]
  CC50: 100 µM
RPMI-8226 [9]
  TGI: 100 µM
MOLT-4 [10]
  TGI: 100 µM
Staphylococcus aureus [11]
  MIC: > 3040 µg/mL
Vero [12]
  MIC: > 80 µg/mL
Vero [13]
  MIC: > 80 µg/mL
HL-60 [14]
  CC50: 100 µM
MOLT-4 [15]
  GI50: 100 µM
E6SM [16]
  MCC: > 80 µg/mL
[17]
  MIC: > 3040 µg/mL
CCRF-CEM [18]
  TGI: 100 µM
HEL [19]
  MIC: > 5 µg/mL
Staphylococcus hominis [20]
  MIC: > 3040 µg/mL
HL-60 [21]
  TGI: 100 µM
HeLa [22]
  MIC: > 80 µg/mL
K562 [23]
  TGI: 100 µM
MT4 [24]
  CC50: 27.3 µM
E6SM [25]
  MIC: > 16 µg/mL
MT4 [26]
  EC50: > 27 µM
Vero [27]
  MIC: > 80 µg/mL
CCRF-CEM [28]
  CC50: 100 µM
Vero [29]
  MIC: > 80 µg/mL
HeLa [30]
  MIC: > 80 µg/mL
E6SM [31]
  MIC: > 16 µg/mL
RPMI-8226 [32]
  GI50: 100 µM
Vero [33]
  MIC: > 80 µg/mL
E6SM [34]
  MIC: > 16 µg/mL
HuT78 [35]
  CC50: 100 µM
RPMI-8226 [36]
  CC50: 100 µM
E6SM [37]
  MIC: > 16 µg/mL
HL-60 [38]
  TGI: 100 µM
MT4 [39]
  EC50: > 27 µM
E6SM [40]
  MIC: > 16 µg/mL
HuT78 [41]
  GI50: 100 µM
Klebsiella pneumoniae [42]
  MIC: > 3040 µg/mL
K562 [43]
  CC50: 100 µM
Vero [44]
  MCC: 80 µg/mL
HEL [45]
  MIC: > 20 µg/mL

## CN[C@@H]1[C@H](O[C@H]2[C@H](O[C@H]3[C@H](O)[C@@H](O)[C@H](N=C(N)N)[C@@H](O)[C@@H]3N=C(N)N)O[C@@H](C)[C@]2(O)C=O)O[C@@H](CO)[C@H](O)[C@H]1O [STREPTOMYCIN]
Klebsiella pneumoniae [46]
  MIC: 0.6 µg/mL (≈ 1.03 µM)
Staphylococcus hominis [47]
  MIC: 2.1 µg/mL (≈ 3.61 µM)
Staphylococcus aureus [48]
  MIC: 2.1 µg/mL (≈ 3.61 µM)
Escherichia coli [49]
  MIC: 0.6 µg/mL (≈ 1.03 µM)
[50]
  MIC: 2.1 µg/mL (≈ 3.61 µM)

## C/C(=N/N=C(/S)N/N=C(\S)c1ccc(Cl)cc1)C12CC3CC(CC(C3)C1)C2
K562 [1]
  GI50: 100 µM
HEL [2]
  MCC: > 5 µg/mL
HeLa [3]
  MCC: > 200 µg/mL
HuT78 [4]
  TGI: 100 µM
CCRF-CEM [5]
  GI50: 100 µM
HEL [6]
  MIC: > 2 µg/mL
Escherichia coli [7]
  MIC: > 2300 µg/mL
MOLT-4 [8]
  CC50: 100 µM
RPMI-8226 [9]
  TGI: 100 µM
MOLT-4 [10]
  TGI: 100 µM
Staphylococcus aureus [11]
  MIC: 1150 µg/mL (≈ 2730 µM)
Vero [12]
  MIC: > 40 µg/mL
E6SM [51]
  MIC: > 40 µg/mL
Vero [13]
  MIC: > 40 µg/mL
HL-60 [14]
  CC50: 100 µM
MOLT-4 [15]
  GI50: 100 µM
MT4 [52]
  CC50: > 10 µM
E6SM [53]
  MIC: > 40 µg/mL
E6SM [16]
  MCC: 200 µg/mL
[17]
  MIC: 1150 µg/mL (≈ 2730 µM)
CCRF-CEM [18]
  TGI: 100 µM
HEL [19]
  MIC: > 2 µg/mL
Staphylococcus hominis [20]
  MIC: 1150 µg/mL (≈ 2730 µM)
HL-60 [21]
  TGI: 100 µM
HeLa [22]
  MIC: > 40 µg/mL
K562 [23]
  TGI: 100 µM
MT4 [24]
  CC50: 10.1 µM
E6SM [25]
  MIC: > 40 µg/mL
Vero [27]
  MIC: > 40 µg/mL
CCRF-CEM [28]
  CC50: 100 µM
Vero [29]
  MIC: > 40 µg/mL
HeLa [30]
  MIC: > 40 µg/mL
E6SM [31]
  MIC: > 40 µg/mL
RPMI-8226 [32]
  GI50: 100 µM
Vero [33]
  MIC: > 40 µg/mL
E6SM [34]
  MIC: > 5 µg/mL
HuT78 [35]
  CC50: 100 µM
RPMI-8226 [36]
  CC50: 100 µM
HL-60 [38]
  GI50: 100 µM
MT4 [39]
  EC50: > 10 µM
HuT78 [41]
  GI50: 100 µM
Klebsiella pneumoniae [42]
  MIC: > 2300 µg/mL
K562 [43]
  CC50: 100 µM
Vero [44]
  MCC: > 400 µg/mL
HEL [45]
  MIC: > 2 µg/mL

## Cc1cn([C@H]2C[C@H](N=[N+]=[N-])[C@@H](CO)O2)c(=O)[nH]c1=O [ZIDOVUDINE]
MT4 [54]
  EC50: 0.0064 µM
MT4 [55]
  EC50: 0.006 µM
MT4 [56]
  CC50: > 500 µM
